{
  "source": "patent US6730707B2",
  "about": "“Method for reducing intraocular pressure using indole derivatives” (Inspire Pharmaceuticals, Inc., priority 2000, dated 2004)",
  "tested_on": "New Zealand white rabbits",
  "assay": "Effects on intraocular pressure (IOP) in rabbits, TONOPEN contact tonometer, topical unilateral application",
  "format": "in vivo, rabbit",
  "details": "for maximal reduction of IOP / IC50: topical; for maximal reduction of IOP: n=8; for IC50: Oryctolagus cuniculus; for persistence of the IOP-lowering effect / time at which the maximal effect on IOP was observed: after topical application; for IOP-lowering effect after pretreatment with luzindole: luzindole 100 μg/10 μL applied 30 min before (FIG. 4)",
  "procedure": "IOP was measured using a TONOPEN contact tonometer supplied by Xomed (Jacksonville, Fla., USA). Ten microliters of the agents were applied topically and unilaterally to the cornea, whereas the contralateral eye received the same volume of saline solution. The corneas were anesthetized to avoid any discomfort associated with the use of the tonometer. Two measurements were made before application of the agents. Melatonin (Sigma, St. […] A single dose was tested in a single animal on a single day.",
  "note": "Where two headings read alike, the source gives them in different places.",
  "data": [
    {"smiles": "COC(=O)Nc1ccc2[nH]cc(CCNC(C)=O)c2c1", "note": "[Example 5-MCA-NAT, 5-(methoxycarbonylamino)-N-acetyltryptamine]", "values": [
      {"measurement": "maximal reduction of IOP", "setting": "5-MCA-NAT, maximal at 100 pg/10 μL", "result": "43.1±3.65", "unit": "%"},
      {"measurement": "IC50", "setting": "read-out: IC50 for lowering IOP", "result": "423 ± 30", "unit": "µg/mL"},
      {"measurement": "IC50", "setting": "read-out: IC50 for lowering IOP, equivalent dose", "result": "1.8 ± 0.1", "unit": "nM"},
      {"measurement": "persistence of the IOP-lowering effect", "result": 10, "unit": "h"},
      {"measurement": "time at which the maximal effect on IOP was observed", "result": 2, "unit": "h"},
      {"measurement": "maximal IOP response relative to melatonin", "setting": "comparison of maximal responses", "result": "almost twice"},
      {"measurement": "IOP-lowering effect after pretreatment with luzindole", "result": "abolished"}
    ]},
    {"smiles": "CC(=O)NCCc1c(Cc2ccccc2)[nH]c2ccccc12", "note": "[luzindole]", "values": [
      {"measurement": "effect on IOP when applied alone", "setting": "100 μg/10 μL, over a duration of six hours", "result": "had no effect"}
    ]},
    {"smiles": "COc1ccc2[nH]cc(CCNC(C)=O)c2c1", "note": "[melatonin]", "values": [
      {"measurement": "IC50", "setting": "equivalent of the IC50 dose (FIG. 3), read-out: IC50 for lowering IOP, equivalent dose", "result": "1.6 ± 0.1", "unit": "nM"},
      {"measurement": "persistence of the IOP-lowering effect", "result": 3, "unit": "h"},
      {"measurement": "time at which the maximal effect on IOP was observed", "result": 1, "unit": "h"},
      {"measurement": "IC50 for lowering IOP", "setting": "dose-response 10 pg/10 μL to 1 mg/10 μL, topical (FIG. 3)", "result": "363±23.0", "unit": "ng/10 μL"},
      {"measurement": "IOP-lowering effect after pretreatment with luzindole", "result": "abolished"},
      {"measurement": "maximal reduction of IOP", "setting": "melatonin, maximal at 10 μg/10 μL", "result": "24±4.4", "unit": "%"}
    ]}
  ]
}
